Where a name gives a salt, the structure may show the parent alone.
Biological target: T1, PRMT1 (Homo sapiens, UniProt Q99873)
T1 construct: host or cells: RKO cells
Test: RKO methylation assay, In Cell Western (ICW) for mono-methyl arginine and DNA content
Assay type: cell-based
Details: RKO cells, 72 hours, mono-methyl arginine signal normalised to DRAQ5, percent activation
From the text: RKO Methylation Assay RKO adherent cells were purchased from ATCC (American Type Culture Collection), Manassas, Va., USA. DMEM/Glutamax medium, penicillin-streptomycin, heat inactivated fetal bovine serum, 0.05% trypsin and D-PBS were purchased from Life Technologies, Grand Island, N.Y., USA. Odyssey blocking buffer, 800CW goat anti-rabbit IgG (H+L) antibody, and Licor Odyssey infrared scanner were purchased from Licor Biosciences, Lincoln, Nebr., USA. Mono-methyl arginine antibody was purchased from Cell Signaling Technology, Danvers, Mass., USA. Methanol was purchased from VWR, Franklin, Mass., USA. 10% Tween 20 was purchased from KPL, Inc., Gaithersburg, Md., USA. DRAQ5 was purchased from Biostatus Limited, Leicestershire, UK. RKO adherent cells were maintained in growth medium (DMEM/Glutamax medium supplemented with 10% v/v heat inactivated fetal bovine serum and 100 units/mL penicillin-streptomycin) and cultured at 37° C. under 5% CO2. Cell Treatment, in Cell Western (ICW) for Detection of Mono-Methyl Arginine and DNA Content. RKO cells were seeded in assay medium at a concentration of 20,000 cells per mL to a poly-D-lysine coated 384 well culture plate (BD Biosciences 356697) with 50 μL per well. Compound (100 nL) from a 96-well source plate was added directly to 384 well cell plate. Plates were incubated at 37° C., 5% CO2 for 72 hours. After three days of incubation, plates were brought to room temperature outside of the incubator for ten minutes and blotted on paper towels to remove cell media. 50 μL of ice cold 100% methanol was added directly to each well and incubated for 30 min at room temperature. After 30 min, plates were transferred to a Biotek EL406 plate washer and washed 2 times with 100 μL per well of wash buffer (1×PBS). Next 60 μL per well of Odyssey blocking buffer (Odyssey Buffer with 0.1% Tween 20 (v/v)) were added to each plate and incubated 1 hour at room temperature. Blocking buffer was removed and 20 μL per well of primary antibody was added (mono-methyl arginine diluted 1:200 in Odyssey buffer with 0.1% Tween 20 (v/v)) and plates were incubated overnight (16 hours) at 4° C. Plates were washed 5 times with 100 μL per well of wash buffer. Next 20 μL per well of secondary antibody was added (1:200 800CW goat anti-rabbit IgG (H+L) antibody, 1:1000 DRAQ5 (Biostatus limited) in Odyssey buffer with 0.1% Tween 20 (v/v)) and incubated for 1 hour at room temperature. The plates were washed 5 times with 100 μL per well wash buffer then 2 times with 100 μL per well of water. Plates were allowed to dry at room temperature then imaged on the Licor Odyssey machine which measures integrated intensity at 700 nm and 800 nm wavelengths. Both 700 and 800 channels were scanned. […] Each plate included fourteen control wells of DMSO only treatment (minimum activation) as well as fourteen control wells for maximum activation treated with 20 μM of a reference compound. The average of the ratio values for each control type was calculated and used to determine the percent activation for each test well in the plate. Reference compound was serially diluted three-fold in DMSO for a total of nine test concentrations, beginning at 20 μM. Percent activation was determined and EC30 curves were generated using triplicate wells per concentration of compound.

T1 sequence (Q99873 whole entry): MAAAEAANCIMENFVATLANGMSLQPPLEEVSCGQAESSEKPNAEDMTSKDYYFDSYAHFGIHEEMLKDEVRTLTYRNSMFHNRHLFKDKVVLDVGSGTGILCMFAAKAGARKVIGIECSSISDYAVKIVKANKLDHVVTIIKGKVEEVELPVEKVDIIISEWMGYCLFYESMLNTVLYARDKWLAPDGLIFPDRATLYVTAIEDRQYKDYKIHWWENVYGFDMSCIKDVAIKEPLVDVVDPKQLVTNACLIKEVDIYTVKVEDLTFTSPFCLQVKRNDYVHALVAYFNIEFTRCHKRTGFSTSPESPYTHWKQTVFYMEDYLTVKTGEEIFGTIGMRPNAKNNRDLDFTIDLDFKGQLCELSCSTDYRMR

| SMILES | PRMT1 RGG ICW EC30 |
| --- | --- |
| CNCCN(C)Cc1c[nH]nc1C1CCC(OCCCOC)C2(CCCC2)C1 (mixture of isomers) [compound 19, N1-((3-(10-(3-methoxypropoxy)spiro[4.5]decan-7-yl)-1H-pyrazol-4-yl)methyl)-N1,N2-dimethylethane-1,2-diamine dihydrochloride] | 440.3 nM |
| CNCCN(C)Cc1c[nH]nc1[C@@H]1CC[C@@H](OCCCOC)C2(CCCC2)C1 (racemic) [compound 26, N1-((3-((7R,10R)-10-(3-methoxypropoxy)spiro[4.5]decan-7-yl)-1H-pyrazol-4-yl)methyl)-N1,N2-dimethylethane-1,2-diamine] | 217.2 nM |
| CNCCN(C)Cc1c[nH]nc1[C@@H]1CC[C@H](OCCCOC)C2(CCCC2)C1 (racemic) [compound 27, N1-((3-((7R,10S)-10-(3-methoxypropoxy)spiro[4.5]decan-7-yl)-1H-pyrazol-4-yl)methyl)-N1,N2-dimethylethane-1,2-diamine] | 216.4 nM |
| CNCCN(C)Cc1c[nH]nc1C1CC(COCC2CC2)CC(COCC2CC2)C1 (stereo not drawn) [compound 2] | >5000 nM |
| CNCCN(C)Cc1c[nH]nc1[C@H]1CC[C@@]2(CCCCO2)CC1 [compound 3] | 114.7 nM |
| CNCCN(C)Cc1c[nH]nc1[C@H]1CC[C@]2(CCCOC2)CC1 [compound 4, N1-((3-((6s,9s)-2-oxaspiro[5.5]undecan-9-yl)-1H-pyrazol-4-yl)methyl)-N1,N2-dimethylethane-1,2-diamine] | 18.34 nM |
| CNCCN(C)Cc1c[nH]nc1[C@H]1CC[C@@]2(CCCOC2)CC1 [compound 5, N1-((3-((6r,9r)-2-oxaspiro[5.5]undecan-9-yl)-1H-pyrazol-4-yl)methyl)-N1,N2-dimethylethane-1,2-diamine] | 14.65 nM |
| CNCCN(C)Cc1c[nH]nc1C1CCC(COCC(C)C)(COCC(C)C)CC1 [compound 6] | 949.3 nM |
| CNCCN(C)Cc1c[nH]nc1C1CCC2(CCC(OC)CC2)CC1 (stereo not drawn) [compound 9, N1-((3-(9-methoxyspiro[5.5]undecan-3-yl)-1H-pyrazol-4-yl)methyl)-N1,N2-dimethylethane-1,2-diamine] | 12.45 nM |
| CNCCN(C)Cc1c[nH]nc1[C@H]1CC[C@]2(CCN(CCC(C)C)C2=O)CC1 [compound 10] | 2001 nM |
| CNCCN(C)Cc1c[nH]nc1[C@H]1CC[C@@]2(CCN(CCC(C)C)C2=O)CC1 [compound 11, (5r,8r)-2-isopentyl-8-(4-((methyl(2-(methylamino)ethyl)amino)methyl)-1H-pyrazol-3-yl)-2-azaspiro[4.5]decan-1-one] | 34.17 nM |
| CNCCN(C)Cc1c[nH]nc1C1C[C@@H](C(=O)N(C)CC(C)C)C(C)(C)[C@H](C(=O)N(C)CC(C)C)C1 (stereo partly drawn) [compound 12] | >5000 nM |
| CNCCN(C)Cc1c[nH]nc1C1C[C@H](C(=O)NCCOC)C(C)(C)[C@H](C(=O)NCCOC)C1 (stereo partly drawn) [compound 13] | >5000 nM |
| CCN(C)C(=O)C1CC(c2n[nH]cc2CN(C)CCNC)CC(C(=O)NCCC(C)C)C1(C)C (stereo not drawn) [compound 14, N1-ethyl-N3-isopentyl-N1,2,2-trimethyl-5-(4-((methyl(2-(methylamino)ethyl)amino)methyl)-1H-pyrazol-3-yl)cyclohexane-1,3-dicarboxamide] | >5000 nM |
| CNCCN(C)Cc1c[nH]nc1C1=CCC(CF)(CF)CC1 [compound 15, N-((3-(4,4-bis(fluoromethyl)cyclohex-1-en-1-yl)-1H-pyrazol-4-yl)methyl)-N1,N2-dimethylethane-1,2-diamine] | 361.1 nM |
| CNCCN(C)Cc1c[nH]nc1C1=CCC(COCC(F)(F)F)CC1 (stereo not drawn) [compound 16, N1,N2-dimethyl-N1-((3-(4-((2,2,2-trifluoroethoxy)methyl)cyclohex-1-en-1-yl)-1H-pyrazol-4-yl)methyl)ethane-1,2-diamine] | 839.3 nM |
| CNCCN(C)Cc1c[nH]nc1C1CCC(C)(C)[C@H](OCC(C)C)C1 (stereo partly drawn) [compound 20, ({3-[(3R)-4,4-dimethyl-3-(2-methylpropoxy)cyclohexyl]-1H-pyrazol-4-yl}methyl)(methyl)[2-(methylamino)ethyl]amine] | 204.3 nM |
| CCC1CC(c2n[nH]cc2CN(C)CCNC)CC(C(=O)NCCOC)C1(C)C (stereo not drawn) [compound 21, 3-ethyl-N-(2-methoxyethyl)-2,2-dimethyl-5-[4-([methyl[2-(methylamino)ethyl]amino]methyl)-1H-pyrazol-3-yl]cyclohexane-1-carboxamide dihydrochloride] | >5000 nM |
| CCC1(CC)CC2(CCC(c3n[nH]cc3CN(C)CCNC)CC2)N(C)C1=O (stereo not drawn) [compound 22, 3,3-diethyl-1-methyl-8-(4-((methyl(2-(methylamino)ethyl)amino)methyl)-1H-pyrazol-3-yl)-1-azaspiro[4.5]decan-2-one] | 1835 nM |
| CNCCN(C)Cc1c[nH]nc1[C@H]1CC[C@@H](COCC(F)(F)F)CC1 [compound 23, N1,N2-dimethyl-N1-((3-((1s,4s)-4-((2,2,2-trifluoroethoxy)methyl)cyclohexyl)-1H-pyrazol-4-yl)methyl)ethane-1,2-diamine] | 1721 nM |
| CNCCN(C)Cc1c[nH]nc1[C@H]1CC[C@H](COCC(F)(F)F)CC1 [compound 24, N1,N2-dimethyl-N1-((3-((1r,4r)-4-((2,2,2-trifluoroethoxy)methyl)cyclohexyl)-1H-pyrazol-4-yl)methyl)ethane-1,2-diamine] | 161.6 nM |
| CNCCN(C)Cc1cn(C)nc1C1CCC(C)(C)[C@@H](C(=O)NCC(C)C)C1 (stereo partly drawn) [compound 25] | >5000 nM |
| CNCCN(C)Cc1c[nH]nc1C1CCC(C)(C)[C@H](COCCCOC)C1 (stereo partly drawn) [compound 30, {2-[({3-[(3R)-3-[(3-methoxypropoxy)methyl]-4,4-dimethylcyclohexyl]-1H-pyrazol-4-yl}methyl)(methyl)amino]ethyl}(methyl)amine] | 209 nM |
| CCOC[C@@H]1CC(c2n[nH]cc2CN(C)CCNC)CCC1(C)C (stereo partly drawn) [compound 31, {2-[({3-[(3R)-3-(ethoxymethyl)-4,4-dimethylcyclohexyl]-1H-pyrazol-4-yl}methyl)(methyl)amino]ethyl}(methyl)amine] | 453.6 nM |
| CNCCN(C)Cc1c[nH]nc1C1CCC(C)(C)[C@H](CO)C1 (stereo partly drawn) [compound 32, [(1R)-2,2-dimethyl-5-[4-({methyl[2-(methylamino)ethyl]amino}methyl)-1H-pyrazol-3-yl]cyclohexyl]methanol] | 517.9 nM |
| CCC1(CC)C[C@]2(CC[C@H](c3n[nH]cc3CN(C)CCNC)CC2)OC1=O [compound 33, (5s,8s)-3,3-diethyl-8-(4-((methyl(2-(methylamino)ethyl)amino)methyl)-1H-pyrazol-3-yl)-1-oxaspiro[4.5]decan-2-one] | 40.81 nM |
| CCC1(CC)C[C@]2(CC[C@@H](c3n[nH]cc3CN(C)CCNC)CC2)OC1=O [compound 34, (5r,8r)-3,3-diethyl-8-(4-((methyl(2-(methylamino)ethyl)amino)methyl)-1H-pyrazol-3-yl)-1-oxaspiro[4.5]decan-2-one] | 65.46 nM |
| CNCCN(C)Cc1c[nH]nc1C1CCC(C)(C)[C@H](COCCOC)C1 (stereo partly drawn) [compound 35, {2-[({3-[(3R)-3-[(2-methoxyethoxy)methyl]-4,4-dimethylcyclohexyl]-1H-pyrazol-4-yl}methyl)(methyl)amino]ethyl}(methyl)amine] | 330.1 nM |
| CCCOCC1(COCCC)CCC(c2n[nH]cc2CN(C)CCNC)CC1 [compound 36, N^1-((3-(4,4-bis(propoxymethyl)cyclohexyl)-1H-pyrazol-4-yl)methyl)-N^1,N^2-dimethylethane-1,2-diamine] | 66.17 nM |
| CC[C@]12CC[C@](CC)(C[C@H](c3n[nH]cc3CN(C)CCNC)C1)O2 [compound 37, N1-((3-((1R,3r,5S)-1,5-diethyl-8-oxabicyclo[3.2.1]octan-3-yl)-1H-pyrazol-4-yl)methyl)-N1,N2-dimethylethane-1,2-diamine] | 245.5 nM |
